This assay concerns the target Dual specificity protein phosphatase 3 (Homo sapiens) (UniProt P51452). In words: VHR phosphatase inhibition, SAR follow up, biochemical fluorescent readout with DiFMUP (AID 2074). The following applies: recombinant VHR phosphatase, DiFMUP fluorescence.

Molecules are shown by their SMILES.

Sequence of Dual specificity protein phosphatase 3 (Homo sapiens) (P51452 whole entry, looked up): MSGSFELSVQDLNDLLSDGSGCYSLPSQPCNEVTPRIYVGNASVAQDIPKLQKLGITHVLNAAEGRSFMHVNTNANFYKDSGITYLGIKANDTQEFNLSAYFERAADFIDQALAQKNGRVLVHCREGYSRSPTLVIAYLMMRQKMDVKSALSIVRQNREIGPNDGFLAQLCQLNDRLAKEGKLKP

Turning to `O=C1/C(=C/c2cn(-c3ccccc3)nc2-c2ccc(OCc3ccccc3Cl)cc2)SC(=S)N1CCS(=O)(=O)O`, the half-inhibitory concentration (IC50) – broadly, the concentration at which inhibition is half-maximal – was 71 nM.

On to `O=C1/C(=C/c2cn(-c3ccccc3)nc2-c2ccc(Cl)cc2)SC(=S)N1CCS(=O)(=O)O`, for which the IC50 is 1800 nM.

In the case of `O=C1/C(=C/c2cn(-c3ccccc3)nc2-c2ccc(S(=O)(=O)N3CCOCC3)cc2)SC(=S)N1CCS(=O)(=O)O`, the concentration for half-maximal inhibition (IC50) is 2400 nM.

Regarding `Cc1ccc(-c2nn(-c3ccccc3)cc2/C=C2\SC(=S)N(CCS(=O)(=O)O)C2=O)cc1`, the IC50 was 3100 nM.

In the case of `O=C1/C(=C/c2cn(-c3ccccc3)nc2-c2ccc(OCc3ccccc3)cc2)SC(=S)N1CCS(=O)(=O)O`, the IC50 was 78 nM.

Turning to `COc1ccc(-c2nn(-c3ccccc3)cc2/C=C2\SC(=S)N(CCS(=O)(=O)O)C2=O)cc1`, the 50% inhibitory concentration (IC50) is 1800 nM.

In the case of `O=C1/C(=C/c2cn(-c3ccccc3)nc2-c2ccc(OCc3ccc(Cl)cc3)cc2)SC(=S)N1CCS(=O)(=O)O`, the half-maximal inhibitory concentration (IC50) was 18 nM.

The values are drawn from PubChem BioAssay AID2074 (Sanford-Burnham Center for Chemical Genomics, 2009).
